Measured values reported in patent US20240325379A1, “LOW-DOSE NALTREXOL AND USES THEREOF” (AETHER THERAPEUTICS INC., priority 2021, published 2024).
“Also recorded” adds a separate entry of the source. Like-named read-outs stand apart in the source and are kept apart here.

How the values were obtained:
[1] = test system: peripheral sensory neurons; settings: after washing out the drugs, 6BN tested at 10 μM; cited from earlier work
Water solubility = format: physicochemical
From the text: (§1) Additional preferred formulations include transdermal patch application and intranasal application (with partial direct access to the brain, bypassing the blood-brain-barrier). When combined with opioid analgesics in a co-formulation, LD-6BN can be delivered in the same formulation type for any of the opioid analgesics currently used clinically, including sustained release oral preparations. No dosage adjustments are needed.

peripheral MOR = settings: methadone maintenance subjects, cited from earlier work
MOR [2] = assay: Antagonist potency when administered before morphine in mice; format: in vivo; settings: for change of antagonist potency when given before morphine compared to the same time: ~2 h before morphine
[3] = humans; cited from earlier work
MOR [4] = target: T1, MOR (Homo sapiens, UniProt P35372); settings: 6β-naltrexol compared with naltrexone; cited from earlier work
T1 sequence (P35372 whole entry): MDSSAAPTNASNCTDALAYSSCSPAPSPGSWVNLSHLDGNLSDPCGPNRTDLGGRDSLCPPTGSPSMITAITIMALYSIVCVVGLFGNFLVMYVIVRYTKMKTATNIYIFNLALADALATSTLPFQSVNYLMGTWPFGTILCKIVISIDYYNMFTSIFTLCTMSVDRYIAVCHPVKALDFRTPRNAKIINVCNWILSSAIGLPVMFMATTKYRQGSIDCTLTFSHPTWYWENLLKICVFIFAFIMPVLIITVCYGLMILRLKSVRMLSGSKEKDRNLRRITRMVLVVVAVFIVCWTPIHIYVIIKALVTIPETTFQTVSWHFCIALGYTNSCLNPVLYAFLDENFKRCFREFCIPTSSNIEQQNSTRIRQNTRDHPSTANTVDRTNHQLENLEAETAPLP

[5] = Blood and brain levels of 6BN after s.c. doses (FIG. 3); format: in vivo, guinea pigs
Procedure: Therefore, when serving as an addiction modulator, LD-6BN interacts effectively with both peripheral and central opioid receptors. Its effect on reversing opioid induced hyperalgesia might at least in part occur by acting on MOR in peripheral nociceptor neurons (15), but reversal of opioid dependence is likely driven by a central effect. The level of MOR bound 6BN after an s.c. dose of 0.02 mg/kg is estimated to occupy ˜10% of MOR sites, assuring a gradual reversal of MOR-μ* to MOR-μ and MOR-μ^x, insufficient to interfere with opioid analgesia, or cause withdrawal in dependent subjects.
(§2) High potency in facilitating gradual conversion of the dependent state (elevated MOR-μ*) back to the resting and/or reserve MOR states. Following LD-6B dosing, only a low fractional receptor occupancy is sufficient to reverse the dependent state in a gradual dynamic fashion, further accounting for high potency as an addiction modulator. • 5. When designed to act as an antagonist (doses above the LD-6BN range), potency is expected to increase over time when administered before an opioid agonist, presumably via high MOR-μ* occupancy and thereby more rapid reversal of MOR-μ* back to its resting or reserve states. […] Morphinan analogues of 6BN tend to bind to all opioid receptors with varying potency and efficacy (patents (47)). […] Potency of potential addiction modulators should therefore be tested for binding and efficacy at MOR, DOR (delta), and KOR, to detect differences between them and anticipate potential variation in clinical outcomes.

[6] = Oral bioavailability in rodents; settings: in vivo
Procedure: In one embodiment, the dose of 6BN is from 0.001 to 0.25 mg. In another embodiment, the dose of 6BN is from 0.25 to 0.50 mg. In a further embodiment, the dose of 6BN is from 0.50 to 0.75 mg. In a still further embodiment, the dose of 6BN is from 0.75 to 1.0 mg. In a still another embodiment, the dose of 6BN is from 1.0 to 1.25 mg. In another embodiment, the dose of 6BN is from 1.25 to 1.5 mg. In a further embodiment, the dose of 6BN is from 1.5 to 1.75 mg. In a still further embodiment, the dose of 6BN is from 1.75 to 2.0 mg. In a still further embodiment, the dose of 6BN is from 2.0 to 3.0 mg. These projected dose ranges can be modified once clinical results with LD-6BN are available (for example oral bioavailability, estimated here to be ˜30% as observed in rodents.

[7] = test system: morphine induced slowing of bowel movements; settings: cited from earlier work
[8] = target: kappa opioid receptors (KOR) (Homo sapiens, UniProt P41145); assay: Inverse agonist activity at KOR pretreated in vitro with KOR agonists; format: biochemical
Sequence of kappa opioid receptors (KOR) (P41145 whole entry): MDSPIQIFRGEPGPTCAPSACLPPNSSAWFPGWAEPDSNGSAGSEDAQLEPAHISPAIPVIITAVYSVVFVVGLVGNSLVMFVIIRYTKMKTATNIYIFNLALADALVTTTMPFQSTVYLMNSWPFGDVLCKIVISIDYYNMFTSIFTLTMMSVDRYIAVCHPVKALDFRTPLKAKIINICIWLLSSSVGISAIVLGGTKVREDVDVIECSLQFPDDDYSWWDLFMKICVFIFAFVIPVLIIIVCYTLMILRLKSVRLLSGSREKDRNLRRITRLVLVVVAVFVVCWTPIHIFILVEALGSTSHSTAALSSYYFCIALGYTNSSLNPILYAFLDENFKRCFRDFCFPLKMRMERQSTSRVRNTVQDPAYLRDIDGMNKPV
From the text: as §2

[9] = Oral bioavailability in humans; settings: human, in vivo
From the text: as §1

MOR-μ* = assay: Prevention/reversal of opioid dependence in animal models (FIG. 1, methadone-treated animals); format: in vivo, guinea pig; settings: low dose, no interference with opioid analgesia, no withdrawal
From the text: FIG. 1 provides data showing prevention of withdrawal behavior in methadone-treated animals.

MOR [10] = target: T1, MOR; settings: in vivo
From the text: (§3) The invention embodies usage of any of these compounds or derivatives or metabolites thereof.

MOR [11] = target: T1, MOR; assay: Neutral antagonism at MOR
From the text: as §3

MOR [12] = target: T1, MOR; assay: MOR affinity (in vitro binding)
MOR [13] = settings: opioid detoxification/weaning with descending doses of buprenorphine; cited from earlier work

For `Oc1ccc2c3c1O[C@H]1[C@H](O)CC[C@@]4(O)[C@@H](C2)N(CC2CC2)CC[C@]314` [6BN, 6β-naltrexol], the “effect on MOR-μ* state” value [1] is given as “reverses MOR-μ* back to the inactive state”, the water solubility (Water solubility) is given as “highly water soluble” and the central withdrawal symptoms (peripheral MOR; 0.5-1.0 mg i.v.) is given as “no central withdrawal symptoms”. For the same molecule, the tolerated i.v. dose (peripheral MOR; i.v., peripheral effects and bowel movements experienced) was 0.5 to 1.0 mg, the “pre-injection time of maximal delayed antagonist action” value (MOR [2]; high doses) was roughly 2 h and the “change of antagonist potency when given before morphine compared to the same time” value (MOR [2]) was “becomes more potent as an antagonist”. For the same molecule, the half-life in blood [3] was roughly 12 h, the “affinity for MOR” value (MOR [4]) was “nearly equally robust affinities” and the receptor occupancy at 0.02 mg/kg ([5]; Cavia porcellus, sc, after an s.c. dose of 0.02 mg/kg, estimated, read-out: occupancy of MOR sites by bound 6BN) was roughly 10%. For the same molecule, the half-life ([5]; guinea pig, blood, sc, 1 mg/kg s.c., guinea pigs, read-out: initial blood t1/2 (converted)) was roughly 60 min, the concentration at 24 h ([5]; guinea pig, brain, sc, 24 h after a 1 mg/kg s.c. dose, guinea pigs, read-out: brain level) was 0.5 ng/g and the blood-brain-barrier penetration ([5]; guinea pig, in vivo) was “slowly”. The bioavailability [6] was roughly 30%, the suppression of analgesia ([7]; 20 mg, highest dose tested, administered 30 min before morphine) was “did not suppress analgesia” and the “ID50 against morphine induced slowing of bowel movements” value ([7]; i.v., against 10 mg morphine, opioid naïve subjects) was roughly 3 mg. For the same molecule, the “activity at KOR pretreated with KOR agonists” value [8] was “detectable inverse agonist activity”, the bioavailability [9] was roughly 30% and the “reversal/prevention of the opioid dependent state” value (MOR-μ*; listed as 6β-Naltrexol) was “extreme potency”. For the same molecule, the “reversal/prevention of the opioid dependent state” value (MOR-μ*; listed as 6β-naltrexol) was “reverses the dependent state with high potency”.
With `CC(=O)N[C@@H]1CC[C@@]2(O)[C@H]3Cc4ccc(O)c5c4[C@@]2(CCN3CC2CC2)[C@@H]1O5` [6β-naltrexamide] the peripheral selectivity (MOR [10]) was “peripheral selectivity”, the peripheral selectivity (MOR [10]; listed as 6β-Natrexamide) was “strong peripherally selective activity” and the “potency as a neutral antagonist” value (MOR [11]) was “low potency as a neutral antagonist”. The type of antagonism (MOR [11]) was “neutral antagonism”, the “change of antagonist potency when given before morphine compared to the same time” value (MOR [2]) was “gains potency; also recorded: increasing potency as a neutral antagonist” and the “affinity to MOR in vitro” value (MOR [12]) was “high affinity”.
In the case of `O=C1CC[C@@]2(O)[C@H]3Cc4ccc(O)c5c4[C@@]2(CCN3CC2CC2)[C@H]1O5` [naltrexone, reference compound], the “initial total oral dose above which withdrawal symptoms occur” value (MOR [13]) is given as no more than 0.25 mg and the “effect on MOR-μ* state” value [1] is given as “lock MOR into the active MOR-μ* state while blocking MOR-μ* signaling”.
